± gives the standard deviation of the averaged measurements.
Tests used:
Assay in all cases: level (log10 ratio to DMSO vehicle control); higher = higher biomarker level / cell amount than vehicle control
Conditions in all cases: in DMSO
[1] = compound: FC(F)(F)C(F)(F)C(F)(F)C(F)(F)C(F)(F)CCI [1-Iodo-1H,1H,2H,2H-perfluoroheptane]
Description: (§1)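 BioMAP Diversity Plus panel of 12 human primary cell co-culture systems (3C, 4H, LPS, SAg, BT, BF4T, BE3C, CASM3C, HDF3CGF, KF3CT, MyoF, Mphg). Compounds were added 1 h before stimulation and left for 24 h (MyoF 48 h; BT 72 h for soluble read-outs or 6 d for IgG). Biomarkers were read by ELISA, cytotoxicity by SRB, PBMC viability and proliferation by Alamar Blue. Each well value was divided by the mean of 8 DMSO control wells on the same plate and log10 transformed; duplicate blinded samples were tested at 4 concentrations.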

[2] = compound: FC(F)(F)C(F)(C(F)(F)F)C(F)(F)C(F)(F)CC1CO1 [3-(Perfluoro-3-methylbutyl)-1,2-propenoxide]
Description: as §1

Perfluoroheptanoic acid = compound: O=C(O)C(F)(F)C(F)(F)C(F)(F)C(F)(F)C(F)(F)C(F)(F)F [Perfluoroheptanoic acid]
Description: as §1

[3] = compound: NCC(F)(F)C(F)(F)C(F)(F)C(F)(F)C(F)(F)C(F)(F)C(F)(F)F [1H,1H-Perfluorooctylamine]
Description: as §1

[4] = compound: COC(=O)CCC(F)(F)C(F)(F)C(F)(F)C(F)(F)F [Methyl 2H,2H,3H,3H-perfluoroheptanoate]
Description: as §1

Perfluoro-1-iodohexane = compound: FC(F)(F)C(F)(F)C(F)(F)C(F)(F)C(F)(F)C(F)(F)I [Perfluoro-1-iodohexane]
Description: as §1

Perfluoropropanoic acid = compound: O=C(O)C(F)(F)C(F)(F)F [Perfluoropropanoic acid]
Description: as §1

Test System | level (log10) ([1]; 6700 nM) | level (log10) ([1]; 20000 nM) | level (log10) ([1]; 60000 nM) | level (log10) ([2]; 6700 nM) | level (log10) ([2]; 20000 nM) | level (log10) (Perfluoroheptanoic acid; 6700 nM) | level (log10) (Perfluoroheptanoic acid; 20000 nM) | level (log10) (Perfluoroheptanoic acid; 60000 nM) | level (log10) ([3]; 6700 nM) | level (log10) ([3]; 20000 nM) | level (log10) ([3]; 60000 nM) | level (log10) ([4]; 6700 nM) | level (log10) ([4]; 20000 nM) | level (log10) ([4]; 60000 nM) | level (log10) (Perfluoro-1-iodohexane; 6700 nM) | level (log10) (Perfluoro-1-iodohexane; 20000 nM) | level (log10) (Perfluoro-1-iodohexane; 60000 nM) | level (log10) (Perfluoropropanoic acid; 6700 nM) | level (log10) (Perfluoropropanoic acid; 20000 nM) | level (log10) (Perfluoropropanoic acid; 60000 nM)
CASM3C:CCL2/MCP-1 | -0.0045 ± 0.011 | -0.006 ± 0.028 | -0.001 ± 0.037 | -0.003 ± 0.0071 | 0.004 ± 0.031 | -0.0115 ± 0.015 | -0.013 ± 0.011 | 0.032 ± 0.044 | -0.0145 ± 0.044 | -0.0245 ± 0.0092 | 0.009 ± 0.04 | -0.0075 ± 0.011 | -0.003 ± 0.0071 | 0.004 ± 0.03 | 0.006 ± 0.0099 | -0.0085 ± 0.019 | 0.0015 ± 0.049 | 0.0025 ± 0.012 | -0.0025 ± 0.019 | 0.0055 ± 0.00071
3C:CD54/ICAM-1 | 0.0055 ± 0.021 | 0.0015 ± 0.0092 | 0.0085 ± 0.005 | -0.0055 ± 0.00071 | -0.0025 ± 0.0064 | 0.0025 ± 0.0035 | -0.0095 ± 0.0092 | 0.008 ± 0.023 | -0.0105 ± 0.028 | -0.0125 ± 0.039 | -0.015 ± 0.025 | -0.0175 ± 0.0078 | -0.017 | 0.002 ± 0.017 | 0 ± 0.0057 | 0.0025 ± 0.0078 | 0.012 ± 0.0014 | -0.0365 ± 0.012 | -0.0085 ± 0.0064 | 0.017 ± 0.02
HDF3CGF:Proliferation 72hr | -0.058 ± 0.0099 | -0.257 ± 0.04 | -0.832 ± 0.16 | 0 ± 0.034 | 0.0055 ± 0.0078 | -0.054 ± 0.033 | 0.0515 ± 0.098 | -0.018 ± 0.018 | -0.041 ± 0.045 | 0.004 ± 0.035 | -0.016 ± 0.041 | 0.011 ± 0.0057 | 0.013 ± 0.0057 | 0.0705 ± 0.044 | -0.0315 ± 0.019 | -0.028 ± 0.0014 | -0.468 ± 0.57 | 0.006 ± 0.0042 | -0.01 ± 0.045 | 0.0325 ± 0.0078
HDF3CGF:EGFR | 0.046 ± 0.02 | 0.059 ± 0.021 | 0.038 ± 0.031 | -0.015 ± 0.0028 | 0.0035 ± 0.023 | -0.008 ± 0.016 | 0.004 ± 0.0028 | 0.01 ± 0.023 | -0.039 ± 0.047 | -0.047 ± 0.073 | -0.034 ± 0.086 | -0.0045 ± 0.0078 | 0.0105 ± 0.029 | -0.0055 ± 0.053 | 0.016 ± 0.05 | 0.0115 ± 0.043 | -0.035 ± 0.14 | -0.0215 ± 0.035 | -0.0145 ± 0.022 | 0.0055 ± 0.019
HDF3CGF:TIMP-1 | -0.001 ± 0.0042 | 0.0055 ± 0.005 | -0.024 ± 0.0085 | -0.012 ± 0.035 | -0.035 ± 0.033 | -0.0015 ± 0.00071 | -0.0115 ± 0.0035 | -0.0055 ± 0.035 | -0.0265 ± 0.077 | -0.0335 ± 0.036 | -0.0405 ± 0.036 | -0.0015 ± 0.022 | 0.008 ± 0.014 | 0.014 ± 0.011 | -0.014 ± 0.021 | -0.017 ± 0.025 | -0.0385 ± 0.016 | -0.0195 ± 0.016 | -0.0045 ± 0.0064 | 0.038 ± 0.025
HDF3CGF:CCL2/MCP-1 | 0.0085 ± 0.0035 | 0.02 ± 0.021 | -0.013 ± 0.035 | -0.0175 ± 0.022 | -0.004 ± 0.0099 | -0.0085 ± 0.0064 | 0.0135 ± 0.00071 | 0.0115 ± 0.016 | -0.006 ± 0.016 | -0.0045 ± 0.012 | -0.0165 ± 0.0078 | -0.039 ± 0.021 | -0.0375 ± 0.06 | -0.014 ± 0.014 | -0.0125 ± 0.013 | -0.02 ± 0.0099 | -0.065 ± 0.034 | -0.022 ± 0.047 | -0.024 ± 0.04 | 0.017 ± 0.051
CASM3C:CD141/Thrombomodulin | -0.011 ± 0.0085 | 0.0015 ± 0.012 | 0.0845 ± 0.012 | 0.003 | 0 ± 0.044 | -0.0085 ± 0.025 | 0.0065 ± 0.0064 | 0.011 ± 0.033 | -0.017 ± 0.025 | -0.0055 ± 0.005 | 0.031 ± 0.045 | -0.042 ± 0.024 | -0.017 ± 0.048 | 0.003 ± 0.017 | 0.0055 ± 0.015 | -0.006 ± 0.0028 | -0.004 ± 0.0028 | -0.05 ± 0.031 | 0.024 ± 0.0099 | 0.0245 ± 0.066
CASM3C:CXCL8/IL-8 | 0.002 ± 0.0028 | -0.0025 ± 0.0035 | 0.003 ± 0.018 | -0.0065 ± 0.005 | -0.003 ± 0.0014 | -0.0085 ± 0.0064 | -0.002 ± 0.0042 | 0.046 ± 0.018 | -0.005 ± 0.0057 | -0.022 ± 0.013 | 0.005 ± 0.027 | -0.0135 ± 0.011 | -0.0115 ± 0.005 | -0.0085 ± 0.013 | 0.0055 ± 0.0092 | -0.0005 ± 0.0078 | 0.011 ± 0.021 | 0.001 ± 0.011 | -0.003 ± 0.023 | 0.0185 ± 0.043
CASM3C:IL-6 | -0.0145 ± 0.022 | -0.044 ± 0.0057 | -0.017 ± 0.018 | -0.02 ± 0.0057 | 0.007 ± 0.027 | -0.0135 ± 0.0078 | -0.0205 ± 0.021 | 0.008 ± 0.085 | -0.0245 ± 0.037 | 0.0005 ± 0.057 | 0.035 ± 0.081 | -0.019 ± 0.021 | -0.025 ± 0.0028 | 0.0005 ± 0.028 | -0.0035 ± 0.012 | -0.0055 ± 0.0021 | 0.018 ± 0.0099 | -0.0205 ± 0.056 | -0.025 ± 0.0071 | -0.0045 ± 0.035
3C:CD141/Thrombomodulin | -0.0385 ± 0.025 | -0.047 ± 0.031 | -0.031 ± 0.0057 | -0.001 ± 0.017 | -0.0245 ± 0.018 | 0.0185 ± 0.0035 | 0.0035 ± 0.00071 | 0.0205 ± 0.0021 | -0.036 ± 0.033 | -0.0295 ± 0.033 | -0.0385 ± 0.039 | -0.0355 ± 0.032 | -0.017 ± 0.0042 | -0.0225 ± 0.013 | -0.025 ± 0.013 | -0.023 ± 0.014 | -0.0015 ± 0.005 | -0.016 ± 0.031 | 0.011 ± 0.021 | 0.0155 ± 0.0035
BE3C:MMP-1 | 0.004 ± 0.023 | 0.074 ± 0.03 | 0.162 ± 0.0078 | 0.0085 ± 0.076 | 0.0445 ± 0.1 | 0.0345 ± 0.015 | 0.0405 ± 0.043 | 0.0865 ± 0.067 | -0.0305 ± 0.042 | -0.0235 ± 0.026 | -0.001 ± 0.04 | 0.0035 ± 0.052 | 0.004 ± 0.045 | 0.03 ± 0.1 | -0.003 ± 0.0085 | -0.0065 ± 0.011 | 0.043 ± 0.016 | -0.02 ± 0.041 | 0.001 ± 0.0014 | 0.03 ± 0.064
MyoF:bFGF | 0.0005 ± 0.0078 | 0.005 ± 0.011 | 0.046 ± 0.013 | 0.006 ± 0.0099 | -0.001 ± 0.0042 | -0.029 ± 0.0085 | -0.0255 ± 0.013 | -0.0075 ± 0.0021 | 0.0095 ± 0.028 | 0 ± 0.014 | 0.019 ± 0.0099 | -0.0125 ± 0.012 | -0.008 ± 0.013 | -0.0075 ± 0.019 | -0.0085 ± 0.0064 | -0.002 ± 0.0042 | 0.0235 ± 0.036 | -0.0175 ± 0.016 | 0.01 ± 0.0028 | 0.015 ± 0.038
BE3C:tPA | -0.0055 ± 0.074 | 0.0465 ± 0.073 | 0.0495 ± 0.047 | -0.0215 ± 0.04 | -0.037 ± 0.033 | -0.0205 ± 0.026 | -0.0255 ± 0.0078 | 0.017 ± 0.031 | -0.035 ± 0.016 | -0.001 ± 0.034 | -0.0145 ± 0.028 | -0.006 ± 0.02 | -0.016 ± 0.014 | 0.0005 ± 0.0078 | -0.008 ± 0.028 | -0.008 ± 0.023 | 0.0125 ± 0.028 | -0.016 ± 0.0042 | -0.028 ± 0.028 | 0 ± 0.0014
MyoF:SRB | 0.001 ± 0.0099 | 0.0085 ± 0.015 | 0.0085 ± 0.025 | 0.008 ± 0.0085 | 0.005 ± 0.0042 | -0.0005 ± 0.00071 | 0 ± 0.0085 | -0.003 ± 0.021 | 0.0035 ± 0.0021 | -0.002 ± 0.0057 | 0.0005 ± 0.005 | -0.004 ± 0.0028 | 0.0065 ± 0.0035 | 0.0065 ± 0.0064 | -0.0405 ± 0.05 | -0.263 ± 0.16 | -0.712 ± 0.15 | 0.0015 ± 0.012 | 0.0005 ± 0.011 | -0.0015 ± 0.0092

Reference: the supplement of paper PMC10331698
